Measured values as given in patent US20080095786A9, “Compositions And Methods For Preventing And Treating Endotoxin-Related Diseases And Conditions” (priority 2003, published 2008).

Legend:
[1] = Antioxidant screening experiments: stability of E5564 to free-radical oxidation; conditions: for Comments (effectiveness of antioxidant in stabilizing E5564 to oxidation): 18-22 hours
Text: We tested several antioxidant compounds to determine whether they impact the stability of E5564 to free-radical oxidation.

[2] = Stabilization of E5564 micelle size during lyophilization (freeze-drying); conditions: for Stabilizing the micelle size of E5564 during freeze-drying: disaccharide in formulation; for Micelle Size (hydrodynamic diameter): after lyophilization
[3] = Relative stability of E5564 in aqueous solution by formation of major oxidative degradants (FIG. 1); type: physicochemical; conditions: inclusion of BHA, 7 μg/vial
Experimental: FIG. 1 is a graph showing the relative stability of E5564 in aqueous solution prepared with different drug substance lots, as measured by the formation of major oxidative degradants.
The following is a detailed description of an example of a method for formulating E5564. As is discussed further below, key features of this method include the following. A small amount (7 μg/vial) of butylated hydroxyanisole (BHA) was added to the formulation to prevent oxidation of the E5564 in aqueous solution. […] In addition, the sodium content of the solution was lowered by replacing sodium phosphate salts with phosphoric acid for pH adjustment, to enhance micelle size stability during the freeze-drying manufacturing step, and a high shelf temperature was used in the freeze-drying step of the process.

[4] = time 0-4 hours, E5564 solution with the labelled antioxidant
[5] = time 18-22 hours, E5564 solution with the labelled antioxidant (row 'none' = E5564 without antioxidant)
[6] = time 0 hours, E5564 solution with the labelled antioxidant (row 'none' = E5564 without antioxidant)

| Comments (effectiveness of antioxidant in stabilizing E5564 to oxidation) [1] | E5564 conc. (% initial) [1, 4] | E5564 conc. (% initial) [1, 5] | Structure (SMILES) | E5564 conc. (% initial) [1, 6] | Major Oxidative Degradant [1, 5] | also measured |
| --- | --- | --- | --- | --- | --- | --- |
| effective |  |  | O[C@H](CS)[C@H](O)CS (racemic) [dithiothreitol] |  |  |  |
| Not useful, sta- | 100 % initial | 97.4 % initial | O=C1O[C@H]([C@@H](O)CO)C(O)=C1O [Ascorbic Acid] |  |  |  |
| Not useful, sta- | 100 % initial | 92.4 % initial | CCCCCCCCCCCCCCCC(=O)OC[C@H](O)[C@H]1OC(=O)C(O)=C1O [Ascorbyl Palmitate] |  |  |  |
| Effective | 100 % initial | 101.3 % initial | OCC(O)CS (centres unmarked) [Monothioglycerol, monothioglycerol] |  |  |  |
| Effective |  | 100.6 % initial | CCCOC(=O)c1cc(O)c(O)c(O)c1 [Propyl Gallate, propyl gallate] | 100 % initial |  |  |

Further lines, the compound ahead of its results:

| Structure (SMILES) | Comments (effectiveness of antioxidant in stabilizing E5564 to oxidation) [1] | E5564 conc. (% initial) [1, 4] | E5564 conc. (% initial) [1, 5] | E5564 conc. (% initial) [1, 6] | Major Oxidative Degradant [1, 5] | also measured |
| --- | --- | --- | --- | --- | --- | --- |
| OC[C@H]1O[C@@](CO)(O[C@H]2O[C@H](CO)[C@@H](O)[C@H](O)[C@H]2O)[C@@H](O)[C@@H]1O [sucrose] |  |  |  |  |  | Stabilizing the micelle size of E5564 during freeze-drying [2]: effective |
| CCCCCC/C=C\CCCCCCCCCC(=O)N[C@H]1[C@H](OC[C@H]2O[C@H](OP(=O)([O-])[O-])[C@H](NC(=O)CC(=O)CCCCCCCCCCC)[C@@H](OCCCCCCCCCC)[C@@H]2O)O[C@H](COC)[C@@H](OP(=O)([O-])[O-])[C@@H]1OCC[C@@H](CCCCCCC)OC.[Na+].[Na+].[Na+].[Na+] [E5564] | Rapid degradation |  | 91.3 % initial | 100 % initial | 6.02 | Stability of micelle size ([2]; 2 mM Na+ in formulation (excluding Na+ from the drug)): good stability; Maintaining the desired micelle size during freeze-drying ([2]; 10 mM Na+ in formulation (excluding sodium from the drug)): works for some, but not all, lots; Micelle Size (hydrodynamic diameter) ([2]; 1% (w/v) lactose in formulation): 16 nm; Micelle Size (hydrodynamic diameter) ([2]; 2% (w/v) lactose in formulation): 13 nm; Micelle Size (hydrodynamic diameter) ([2]; 5% (w/v) lactose in formulation): 8 nm; Micelle Size (hydrodynamic diameter) ([2]; 10% (w/v) lactose in formulation): 7 nm; Major Oxidative Degradant [1, 6]: 1.12 |
| CC(=O)Oc1c(C)c(C)c2c(c1C)CCC(C)(CCC[C@H](C)CCC[C@H](C)CCCC(C)C)O2 (some centres unmarked) [Vitamin E Acetate] |  | 100 % initial | 94.2 % initial |  |  |  |
| OC[C@H]1O[C@@H](O[C@H]2[C@H](O)[C@@H](O)C(O)O[C@@H]2CO)[C@H](O)[C@@H](O)[C@H]1O (some centres unmarked) [lactose] |  |  |  |  |  | Stabilizing the micelle size of E5564 during freeze-drying [2]: effective |
| O=S([O-])([O-])=S.[Na+].[Na+] [Sodium Thiosulfate, sodium thiosulfate] | Effective | 100 % initial | 100.2 % initial |  | 0.19 | Major Oxidative Degradant [1, 4]: 0.09 |
| O=S([O-])[O-].[Na+].[Na+] [Sodium Sulfite, sodium sulfite] | Effective | 100 % initial | 101.8 % initial |  | 0.25 | Major Oxidative Degradant [1, 4]: 0.13 |
| Cc1cc(C(C)(C)C)c(O)c(C(C)(C)C)c1 [BHT, butylated hydroxytoluene] | Effective |  | 102.8 % initial | 100 % initial |  |  |
| COc1ccc(O)c(C(C)(C)C)c1 [BHA, butylated hydroxyanisole] | Effective |  | 102.3 % initial | 100 % initial | 0.27 | Major Oxidative Degradant [1, 6]: 0.68; Stability of E5564 drug product in solution [3]: increases its stability |
